# “Also recorded” adds a separate entry of the source. Read-outs that look alike come from different tables or passages of the source.
# Assay: Ocular tissue and plasma pharmacokinetics, 15 mg/kg single and BID oral, Dutch Belted rabbits (Example 3/5)
# Assay type: in vivo
# Conditions: for MRTlast / Tlast / MRT inf / half-life: Choroid-RPE; for concentration at 1 h / concentration at 6 h / concentration at 168 h / concentration at 24 h / concentration at 96 h / concentration at 240 h / concentration at 0 h / MRT inf / half-life: Dutch Belted, rabbit
# Experimental: Study design including group designation and dose levels are outlined in Table 4. […] Fifteen Dutch Belted and 5 New Zealand White rabbits were used as un-dosed controls. […] The dose volume was 5 mL/kg/dose for all groups. Safety was assessed with toxicological and ophthalmic examinations including slit lamp biomicroscopy, indirect ophthalmoscopy, rebound tonometry, and ultrasonic corneal pachymetry.
# Analyst® software (Version 1.6.2) was used to capture the LC-MS/MS data and integrate the peak areas. Calibration standards and QCs were prepared in a blank solution of 75%:25% acetonitrile:water (v:v), ranging from 10 ng/mL to 10,000 ng/mL. Matrix matched standard and QC samples were prepared by mixing 2 μL of standard or QC sample above with 18 μL of appropriate ocular tissue or plasma. The final calibration standards ranged from 1 ng/mL to 1000 ng/mL. All plasma, retina, choroid-RPE, optic nerve, and vitreous humor samples were analyzed in a single run. Iris-ciliary body samples were analyzed in two runs due to a need for sample dilution. […] Dilution QCs were prepared at 5000 ng/mL where appropriate. Two sets of standards were used to bracket the analytical run at the beginning and end of the run. Three sets of QCs were included the analytical runs. All concentrations in ocular matrices are reported as ng/g based on the assumed density of 1 g/mL.
# 1, 6, 24, 96, 168, and 240 hours post-dose on Day 15, with the eyes collected at the same time as blood sampling. A single blood sample was taken from Groups 4 and 5 at sacrifice. Plasma, vitreous humor (VH), retina, choroid-retina pigmented epithelium (Choroid-RPE), optic nerve (ON), and iris-ciliary body (I-CB) were analyzed by LC-MS/MS to quantify test article concentrations. The lower limit of quantitation (LLOQ) in plasma and vitreous humor was 1.0 ng/mL. The LLOQ was 6.0 ng/g in retina, Choroid-RPE, and I-CB and the optic nerve LLOQ was 15 ng/g, assuming tissue density of 1 g/mL where relevant.
# Study design including group designation and dose levels are outlined in Table 18.
# [1] = DB rabbit, 15 mg/kg BID, Day 15
# [2] = DB rabbit, 15 mg/kg single dose, Day 1
# [3] = DB rabbit, 15 mg/kg BID oral, Day 15, 24 h
# [4] = DB rabbit, 15 mg/kg BID oral, Day 15, 96 h
# [5] = DB rabbit, 15 mg/kg BID oral, Day 15, 168 h
# [6] = DB rabbit, 15 mg/kg BID oral, Day 15, 240 h
# [7] = DB rabbit, 15 mg/kg single oral dose, Day 1, 0 h
# [8] = DB rabbit, 15 mg/kg single oral dose, Day 1, 0 h, 15 mg/kg
# [9] = DB rabbit, 15 mg/kg single oral dose, Day 1, 24 h
# [10] = DB rabbit, 15 mg/kg single oral dose, Day 1, 96 h
# [11] = DB rabbit, 15 mg/kg single oral dose, Day 1, 96 h, 15 mg/kg
# [12] = DB rabbit, 15 mg/kg single oral dose, Day 1, 168 h
# [13] = DB rabbit, 15 mg/kg single oral dose, Day 1, 240 h
# [14] = DB rabbits, Day 1, 15 mg/kg single dose, 0 hr
# [15] = choroid-RPE, po, 15 mg/kg, DB rabbit, 15 mg/kg BID, Day 15
# [16] = choroid-RPE, po, 15 mg/kg, DB rabbit, 15 mg/kg single dose, Day 1
structure (smiles),measurement,setting,value
"CC(=O)c1nn(CC(=O)N2C[C@H](F)C[C@H]2C(=O)Nc2cccc(Br)n2)c2ccc(-c3cnc(C)nc3)cc12 [Compound 1, (2S,4R)-1-(2-(3-Acetyl-5-(2-methylpyrimidin-5-yl)-1H-indazol-1-yl)acetyl)-N-(6-bromopyridin-2-yl)-4-fluoropyrrolidine-2-carboxamide]",MRTlast,[1],68.5 h
same,Tlast,[1],240 h
same,MRTlast,[2],49.7 h
same,Tlast,[2],240 h
same,Vitreous humor concentration after 24 hours post-dose (non-detectable),"DB rabbit, 15 mg/kg BID for 14 days",< 1.0 ng/mL
same,Mean Aqueous Humor concentration,"DB rabbit, 15 mg/kg BID oral, Day 15, 0 h",BLQ^a
same,Mean Aqueous Humor concentration,"DB rabbit, 15 mg/kg BID oral, Day 15, 6 h",BLQ^a
same,Mean Aqueous Humor concentration,[3],BLQ^a
same,Mean Vitreous Humor concentration,[3],BLQ^a
same,Mean plasma concentration,"DB rabbit, 15 mg/kg BID oral, Day 15, 24 h, 15 mg/kg",5.6 ng/mL
same,Mean Aqueous Humor concentration,[4],BLQ^a
same,Mean Vitreous Humor concentration,[4],BLQ^a
same,Mean Aqueous Humor concentration,[5],BLQ^a
same,Mean Vitreous Humor concentration,[5],BLQ^a
same,Mean plasma concentration,[5],BLQ^a
same,Mean Aqueous Humor concentration,[6],BLQ^a
same,Mean Vitreous Humor concentration,[6],BLQ^a
same,Mean plasma concentration,[6],BLQ^a
same,Mean Aqueous Humor concentration,[7],BLQ^a
same,Mean Vitreous Humor concentration,[7],BLQ^a
same,Mean plasma concentration,[7],BLQ^a
same,Mean Choroid-RPE concentration,[8],BLQ^a and BLQ
same,Mean Iris-Ciliary Body concentration,[8],BLQ^a and BLQ
same,Mean retina concentration,[8],BLQa and BLQ^a and BLQ
same,Mean retina concentration,"DB rabbit, 15 mg/kg single oral dose, Day 1, 6 h, 15 mg/kg",30 ng/g
same,Mean Aqueous Humor concentration,[9],BLQ^a
same,Mean Vitreous Humor concentration,[9],BLQ^a
same,Mean retina concentration,"DB rabbit, 15 mg/kg single oral dose, Day 1, 24 h, 15 mg/kg",25 ng/g
same,Mean Aqueous Humor concentration,[10],BLQ^a
same,Mean Vitreous Humor concentration,[10],BLQ^a
same,Mean plasma concentration,[11],no drug was detectable; also recorded: BLQ^a
same,Mean retina concentration,[11],BLQ^a and BLQ
same,Mean Vitreous Humor concentration,[12],BLQ^a
same,Mean plasma concentration,[12],BLQ^a
same,Mean retina concentration,"DB rabbit, 15 mg/kg single oral dose, Day 1, 168 h, 15 mg/kg",BLQ^a and BLQ
same,Mean Aqueous Humor concentration,[13],BLQ^a
same,Mean Vitreous Humor concentration,[13],BLQ^a
same,Mean plasma concentration,[13],BLQ^a
same,Mean retina concentration,"DB rabbit, 15 mg/kg single oral dose, Day 1, 240 h, 15 mg/kg",BLQ^a and BLQ
same,Accumulation of the drug in Choroid-RPE after repeat dosing,"DB rabbit, Day 1 to Day 15",~6 fold
same,Mean Choroid-RPE concentration,[14],BLQ
same,Mean retina concentration,[14],BLQ
same,Mean retina concentration,"DB rabbits, Day 1, 15 mg/kg single dose, 96 hr",BLQ
same,Mean retina concentration,"DB rabbits, Day 1, 15 mg/kg single dose, 168 hr",BLQ
same,Mean retina concentration,"DB rabbits, Day 1, 15 mg/kg single dose, 240 hr",BLQ
same,concentration at 1 h,"aqueous humor, po, 15 mg/kg, DB rabbit, 15 mg/kg BID oral, Day 15, 1 h, read-out: Mean Aqueous Humor concentration",10.6 ng/mL
same,concentration at 1 h,"aqueous humor, po, 15 mg/kg, DB rabbit, 15 mg/kg single oral dose, Day 1, 1 h, read-out: Mean Aqueous Humor concentration",3.8 ng/mL
same,concentration at 6 h,"aqueous humor, po, 15 mg/kg, DB rabbit, 15 mg/kg single oral dose, Day 1, 6 h, read-out: Mean Aqueous Humor concentration",45.3 ng/mL
same,concentration at 168 h,"aqueous humor, po, 15 mg/kg, DB rabbit, 15 mg/kg single oral dose, Day 1, 168 h, read-out: Mean Aqueous Humor concentration",11.1 ng/mL
same,concentration at 1 h,"choroid-RPE, oral, 15 mg/kg, DB rabbits, Day 1, 15 mg/kg single dose, 1 hr, read-out: Mean Choroid-RPE Concentration",917 ng/g
same,concentration at 6 h,"choroid-RPE, oral, 15 mg/kg, DB rabbits, Day 1, 15 mg/kg single dose, 6 hr, read-out: Mean Choroid-RPE Concentration",866 ng/g
same,concentration at 24 h,"choroid-RPE, oral, 15 mg/kg, DB rabbits, Day 1, 15 mg/kg single dose, 24 hr, read-out: Mean Choroid-RPE Concentration",311 ng/g
same,concentration at 96 h,"choroid-RPE, oral, 15 mg/kg, DB rabbits, Day 1, 15 mg/kg single dose, 96 hr, read-out: Mean Choroid-RPE Concentration",77.5 ng/g
same,concentration at 168 h,"choroid-RPE, oral, 15 mg/kg, DB rabbits, Day 1, 15 mg/kg single dose, 168 hr, read-out: Mean Choroid-RPE Concentration",56.3 ng/g
same,concentration at 240 h,"choroid-RPE, oral, 15 mg/kg, DB rabbits, Day 1, 15 mg/kg single dose, 240 hr, read-out: Mean Choroid-RPE Concentration",28.1 ng/g
same,concentration at 0 h,"choroid-RPE, oral, 15 mg/kg, DB rabbits, Day 15, 15 mg/kg BID, 0 hr, read-out: Mean Choroid-RPE Concentration",2460 ng/g
same,concentration at 1 h,"choroid-RPE, oral, 15 mg/kg, DB rabbits, Day 15, 15 mg/kg BID, 1 hr, read-out: Mean Choroid-RPE Concentration",4870 ng/g
same,concentration at 6 h,"choroid-RPE, oral, 15 mg/kg, DB rabbits, Day 15, 15 mg/kg BID, 6 hr, read-out: Mean Choroid-RPE Concentration",3200 ng/g
same,concentration at 24 h,"choroid-RPE, oral, 15 mg/kg, DB rabbits, Day 15, 15 mg/kg BID, 24 hr, read-out: Mean Choroid-RPE Concentration",1960 ng/g
same,concentration at 96 h,"choroid-RPE, oral, 15 mg/kg, DB rabbits, Day 15, 15 mg/kg BID, 96 hr, read-out: Mean Choroid-RPE Concentration",866 ng/g
same,concentration at 168 h,"choroid-RPE, oral, 15 mg/kg, DB rabbits, Day 15, 15 mg/kg BID, 168 hr, read-out: Mean Choroid-RPE Concentration",485 ng/g
same,concentration at 240 h,"choroid-RPE, oral, 15 mg/kg, DB rabbits, Day 15, 15 mg/kg BID, 240 hr, read-out: Mean Choroid-RPE Concentration",340 ng/g
same,MRT inf,[15],125 h
same,half-life,[15],107 h
same,MRT inf,[16],81.8 h
same,half-life,[16],98.4 h
same,concentration at 0 h,"choroid-RPE, po, 15 mg/kg, DB rabbit, 15 mg/kg BID oral, Day 15, 0 h, read-out: Mean Choroid-RPE concentration",2460 ng/g
same,concentration at 1 h,"choroid-RPE, po, 15 mg/kg, DB rabbit, 15 mg/kg BID oral, Day 15, 1 h, read-out: Mean Choroid-RPE concentration",4870 ng/g
same,concentration at 6 h,"choroid-RPE, po, 15 mg/kg, DB rabbit, 15 mg/kg BID oral, Day 15, 6 h, read-out: Mean Choroid-RPE concentration",3200 ng/g
same,concentration at 24 h,"choroid-RPE, po, 15 mg/kg, DB rabbit, 15 mg/kg BID oral, Day 15, 24 h, read-out: Mean Choroid-RPE concentration",1960 ng/g
same,concentration at 96 h,"choroid-RPE, po, 15 mg/kg, DB rabbit, 15 mg/kg BID oral, Day 15, 96 h, read-out: Mean Choroid-RPE concentration",866 ng/g
same,concentration at 168 h,"choroid-RPE, po, 15 mg/kg, DB rabbit, 15 mg/kg BID oral, Day 15, 168 h, read-out: Mean Choroid-RPE concentration",485 ng/g
same,concentration at 240 h,"choroid-RPE, po, 15 mg/kg, DB rabbit, 15 mg/kg BID oral, Day 15, 240 h, read-out: Mean Choroid-RPE concentration",340 ng/g
same,concentration at 1 h,"choroid-RPE, po, 15 mg/kg, DB rabbit, 15 mg/kg single oral dose, Day 1, 1 h, read-out: Mean Choroid-RPE concentration",917 ng/g
same,concentration at 6 h,"choroid-RPE, po, 15 mg/kg, DB rabbit, 15 mg/kg single oral dose, Day 1, 6 h, read-out: Mean Choroid-RPE concentration",866 ng/g
same,concentration at 24 h,"choroid-RPE, po, 15 mg/kg, DB rabbit, 15 mg/kg single oral dose, Day 1, 24 h, read-out: Mean Choroid-RPE concentration",311 ng/g
same,concentration at 96 h,"choroid-RPE, po, 15 mg/kg, DB rabbit, 15 mg/kg single oral dose, Day 1, 96 h, read-out: Mean Choroid-RPE concentration",77.5 ng/g
same,concentration at 168 h,"choroid-RPE, po, 15 mg/kg, DB rabbit, 15 mg/kg single oral dose, Day 1, 168 h, read-out: Mean Choroid-RPE concentration",56.3 ng/g
same,concentration at 240 h,"choroid-RPE, po, 15 mg/kg, DB rabbit, 15 mg/kg single oral dose, Day 1, 240 h, read-out: Mean Choroid-RPE concentration",28.1 ng/g

# From patent publication US20230126447A1, “OCULAR DRUG DEPOT FOR COMPLEMENT-MEDIATED DISORDERS” (priority 2020, published 2023)
